Values of other authors in PubChem BioAssay AID1259409 (Chemical Carcinogenesis Research Information System (CCRIS), 2018).

System: rodent chemically induced tumor inhibition, incidence and multiplicity
Experiment: CCRIS tumor inhibitor studies

CC(C)(Oc1ccc(CCNC(=O)c2ccc(Cl)cc2)cc1)C(=O)O
tumour outcome (control, treated, inhibition, significance) (Carcinogen: AZOXYMETHANE (25843-45-2), Dose [Inhibitor]: 0, 0.05% ADMINISTERED 1 WK AFTER END OF DEXTRAN SODIUM SULFATE TREATMENT FOR 14 WKS (STUDY DURATION: 17 WKS), Route [Inhibitor]: DIET, Species: MOUSE, Strain/Sex: CD-1/FEMALE (10,10)/(10,10), Target Tissue: Type of Lesion: COLON: ADENOCARCINOMA, Dose [Carcinogen]: 10 MG/KG ONCE, Promoter: DEXTRAN SODIUM SULFATE (9011-18-1)): 10/10 (100%), 6/10 (60%), 40%, p<0.05 | tumour outcome (control, treated, inhibition, significance) (Carcinogen: AZOXYMETHANE (25843-45-2), Dose [Inhibitor]: 0, 0.05% ADMINISTERED 1 WK AFTER END OF DEXTRAN SODIUM SULFATE TREATMENT FOR 14 WKS (STUDY DURATION: 17 WKS), Route [Inhibitor]: DIET, Species: MOUSE, Strain/Sex: CD-1/FEMALE (10,10)/(10,10), Target Tissue: Type of Lesion: COLON: ADENOMA, Dose [Carcinogen]: 10 MG/KG ONCE, Promoter: DEXTRAN SODIUM SULFATE (9011-18-1)): 10/10 (100%), 7/10 (70%), 30%, not significant

CC1=C(/C=C/C(C)=C/C=C/C(C)=C\C(=O)NCCO)C(C)(C)CCC1
tumour outcome (control, treated, inhibition, significance) (Carcinogen: N-BUTYL-N-(4-HYDROXYBUTYL)NITROSAMINE, 3817-11-6, Dose [Inhibitor]: 1.5 MMOL/KG DIET DAILY FOR 159 D STARTING 1 WK AFTER THE FINAL CARCINOGEN DOSE (STUDY DURATION: 216 D), Route [Inhibitor]: ORAL, Species: MOUSE, Strain/Sex: DBF1/MALE, Target Tissue: Type of Lesion: URINARY BLADDER: TRANSITIONAL CELL CARCINOMA, Dose [Carcinogen]: 7.5 MG 1/WK FOR 8 WK, Promoter: NONE USED): 29/98 (30%), 16/97 (17%), 43%, p<0.05 | tumour outcome (control, treated, inhibition, significance) (Carcinogen: N-BUTYL-N-(4-HYDROXYBUTYL)NITROSAMINE, 3817-11-6, Dose [Inhibitor]: 1.5 MMOL/KG IN DIET FOR 159 D STARTING 1 WK AFTER LAST CARCINOGEN DOSE (STUDY DURATION: 216 D), Route [Inhibitor]: ORAL, Species: MOUSE, Strain/Sex: BDF/MALE, Target Tissue: Type of Lesion: URINARY BLADDER: TRANSITIONAL CELL CARCINOMA, Dose [Carcinogen]: 7.5 MG 1/WK FOR 8 WK, Promoter: NONE USED): 29/98 (30%), 16/97 (17%), 43%, p<0.05

CC1(C)[C@H](O)CC[C@]2(C)C3=CC[C@@]4(C)[C@@H]5C[C@](C)(CO)CC[C@]5(C)CC[C@]4(C)C3=CC[C@@H]12
tumour outcome (control, treated, inhibition, significance) (Carcinogen: 7,12-DIMETHYLBENZ[A]ANTHRACENE, 57-97-6, Dose [Inhibitor]: 0, 2 UMOL IN 100 µL ACETONE:DMSO (9:1) 2/WK FOR 17 WK APPLIED 30 MIN PRIOR TO EACH PROMOTER DOSE (STUDY DURATION: 18 WK), Route [Inhibitor]: DERMAL, Species: MOUSE, Strain/Sex: ICR/FEMALE, Target Tissue: Type of Lesion: SKIN: PAPILLOMA, Dose [Carcinogen]: 50 UG IN 100 µL ACETONE ONCE, Promoter: 12-O-TETRADECANOYLPHORBOL-13-ACETATE, 16561-29-8): 87%, 13%, 85%, not calculated

O=C1CC(C(=O)O)C(C(=O)O)O1 (stereo unspecified)
tumour outcome (control, treated, inhibition, significance) (Carcinogen: BENZO[A]PYRENE, 50-32-8, Dose [Inhibitor]: 0.034 MMOL/G IN DIET FOR 5 WK BEGINNING 1 WK PRIOR TO FIRST CARCINOGEN DOSE AND CONTINUING FOR 3 D POST LAST CARCINOGEN, Route [Inhibitor]: ORAL, Species: MOUSE, Strain/Sex: ICR/HA/FEMALE, Target Tissue: Type of Lesion: FORESTOMACH: TUMOR, Dose [Carcinogen]: 1 MG IN 0.2 ML CORN OIL 2/WK FOR 4 WK STARTING, Promoter: NONE USED): 100%, 100%, 0%, not significant

C/C=C/C1=CC2=C(CO1)C(=O)[C@]1(C)OC(=O)[C@H](C(=O)CCCCC)[C@H]1C2
tumour outcome (control, treated, inhibition, significance) (Carcinogen: PEROXYNITRITE [19059-14-4], Dose [Inhibitor]: 0.0025% FOR 2 WKS BEFORE PROMOTER (STUDY DURATION: 20 WK), Route [Inhibitor]: DRINKING WATER, Species: MOUSE, Strain/Sex: SENCAR/FEMALE (15,?)/(15,?), Target Tissue: Type of Lesion: SKIN: PAPILLOMA, Dose [Carcinogen]: 390 NM IN 0.1 ML 1 MM NAOH ONCE 1 WK AFTER INHIBITOR, Promoter: 12-O-TETRADECANOYLPHORBOL-13-ACETATE [16561-29-8]): 100%, 80%, 20%, not significant | tumour outcome (control, treated, inhibition, significance) (Carcinogen: UVB IRRADIATION, Dose [Inhibitor]: 0.0025% IN DRINKING WATER FOR 2 WKS BEGINNING WHILE MICE RECEIVED UVB (STUDY DURATION: 20 WK), Route [Inhibitor]: DRINKING WATER, Species: MOUSE, Strain/Sex: SENCAR/FEMALE (15,?)/(15,?), Target Tissue: Type of Lesion: SKIN: PAPILLOMA, Dose [Carcinogen]: 15 MIN EACH D FOR 3 D, Promoter: 12-O-TETRADECANOYLPHORBOL-13-ACETATE [16561-29-8]): 100%, 53%, 47%, not significant

CC(C)=CCCC(C)CCO (stereo unspecified)
tumour outcome (control, treated, inhibition, significance) (Carcinogen: AZOXYMETHANE, 25843-45-2, Dose [Inhibitor]: 0, 5 MG/G IN DIET FOR 22 WK BEGINNING 3 D POST LAST CARCINOGEN DOSE (STUDY DURATION: 25 WK), Route [Inhibitor]: ORAL, Species: RAT, Strain/Sex: F344/MALE, Target Tissue: Type of Lesion: DUODENUM: ADENOCARCINOMA, Dose [Carcinogen]: 15 MG/KG BW 2/WK FOR 3 WK, Promoter: NONE USED): 50%, 26%, 48%, not significant | tumour outcome (control, treated, inhibition, significance) (Carcinogen: AZOXYMETHANE, 25843-45-2, Dose [Inhibitor]: 0, 5 MG/G IN DIET FOR 22 WK BEGINNING 3 D POST LAST CARCINOGEN DOSE (STUDY DURATION: 25 WK), Route [Inhibitor]: ORAL, Species: RAT, Strain/Sex: F344/MALE, Target Tissue: Type of Lesion: LARGE BOWEL: ADENOMATOUS POLYP, Dose [Carcinogen]: 15 MG/KG BW 2/WK FOR 3 WK, Promoter: NONE USED): 82%, 69%, 16%, not significant

CC(C)(C)c1cc(O)c(C(C)(C)C)cc1O
tumour outcome (control, treated, inhibition, significance) (Carcinogen: BENZO[A]PYRENE, 50-32-8, Dose [Inhibitor]: 0.03 MMOL/G OF DIET DAILY STARTING 8 D BEFORE AND CONTINUING THROUGH 3 D AFTER CARCINOGEN TREATMENT FOLLOWED BY OBSERVAT, Route [Inhibitor]: ORAL, Species: MOUSE, Strain/Sex: ICR/FEMALE, Target Tissue: Type of Lesion: FORESTOMACH: NEOPLASM, Dose [Carcinogen]: 1 MG IN 0.2 ML CORN OIL 2/WK FOR 4 WK, Promoter: NONE USED): 90%, 95%, -6%, not significant
